The values below come from article PMC5531494, “Target specificity, in vivo pharmacokinetics, and efficacy of the putative STAT3 inhibitor LY5 in osteosarcoma, Ewing's sarcoma, and rhabdomyosarcoma” (PLoS ONE, 2017).

The subject of data set [1] is MG63.3 cells. The experiment in a line: Sulforhodamine B cytotoxicity / cell viability assay. It is filed as cell-based. Particulars: Homo sapiens, MG-63.3. The protocol:
Murine K7M2 and human MG63.3 OS cells were treated with increasing concentrations of LY5 for 2 hrs or 7 hrs. Western blotting was performed for pSTAT3 and STAT3 as indicated above to confirm inhibition of STAT3 phosphorylation in the cell lines prior to initiation of the PuMA assay. In addition, a sulforhodamine B colorimetric assay was performed to assess the cytotoxicity of LY5 in K7M2 and MG63.3 cells as previously described.
(§1) MG63.3 and K7M2 cell lines were exposed to increasing concentrations of LY5 to determine the IC50 (A). Western blot analysis was performed to determine the dose and duration of LY5 exposure required to inhibit STAT3 phosphorylation (B-C). Serial imaging of fluorescently labeled MG63.3 and K7M2 cells was performed in ex vivo LY5 treated lung sections (D). Metastatic burden was quantified by evaluation of the percent tumor burden (mean normalized fluorescent area). Data are reported as the mean ± standard deviation. In MG 63.3 experiment, p < 0.0001 Kruskal-Wallis test, p < 0.05 10 μM vs control at days 7, 14, and 21, 10 μM vs 1 μM at days 7, 14, and 21, 50 μM vs control at days 7, 14, and 21, and 50 μM vs 10 μM at days 7, 14, and 21 post-test Dunn. In K7M2 experiment, p < 0.0001 Kruskal-Wallis test, p < 0.05 10 μM vs control at days 14 and 21, 10 μM vs 0.1 μM at days 14 and 21, and 10 μM vs 1 μM at days 14 and 21, post-test Dunn.

The test system of data set [2] is MG63.3 cells. The experiment in a line: Ex vivo pulmonary metastasis assay (PuMA). As to conditions: MG 63.3, 10 μM and 50 μM LY5, up to 21 days. It is filed as cell-based, human. The protocol:
GFP-positive K7M2 and MG63.3 cells (3 x 10^5 MG63.3; 5 x 10^5 K7M2) were administered via tail vein injection into mice. Following humane euthanasia, the lungs were insufflated with a culture medium/agarose mixture to a constant hydrostatic pressure of 20 cm H2O and prepared for ex vivo culture as previously described. Lung sections were cultured in complete media containing LY5 (0, 0.1, 1, 10 or 50 μM) on sterile Gelfoam using 6 lung sections per treatment condition. Media was changed every 48 hrs and lung slices were imaged with a fluorescent microscope every 7 days for a total of 21 days.
as §1, with “In K7M2 experiment, p < 0.0001 Kruskal-Wallis test, p < 0.05 10 μM vs control at days 14 and 21, 10 μM vs 0.1 μM at days 14 and 21, and 10 μM vs 1 μM at days 14 and 21, post-test Dunn.” left out

Data set [3] in a line: Toxicity / tolerability in mice. It is filed as in vivo. The protocol: Single-dose toxicity studies in mice were performed to identify the maximum tolerated dose of LY5. Additionally, 30 ICR mice (Harlan Laboratories, Indianapolis, IN) were divided into 3 groups to be dosed with 5 mg/kg LY5 (2 mg/ml) by oral (PO), intraperitoneal (IP) or intravenous (IV) routes to establish oral bioavailability. Animals were euthanized and blood was collected at allocated time points (5, 10, 20, 30 and 60 minutes, 2, 4, 6, 8 and 24 hrs) after LY5 administration, plasma was separated by centrifugation and frozen immediately on dry ice. Samples were stored at -80° C prior to analysis.

For the next data set, the system named is OS-17. The experiment in a line: Subcutaneous xenograft study. It counts as in vivo, mice. As to conditions: OS-17, 10 mg/kg daily for 28 days. The protocol:
(§2) C.B-17SC scid^-/- female mice (Taconic Farms, Germantown NY), were used to propagate subcutaneously implanted tumors. All mice were maintained under barrier conditions and experiments were conducted using protocols and conditions approved by the institutional animal care and use committee at University of Texas Health Science Center at San Antonio. Ten mice were used in each control or treatment group. Tumor volumes (cm^3) were determined and responses were determined using three activity measures as previously described.
(§3) The data were analyzed by using GraphPad Prism software (GraphPad Software, Inc., San Diego, CA). Data are presented as mean ± standard deviation. Data were analyzed by one-way analysis of variance (ANOVA), and Tukey’s post-test was used to assess differences between groups. Differences were considered statistically significant at p < 0.05. For in vivo xenograft models, an event was defined as four times the tumor volume at baseline similar to the PPTP criteria. The probabilities of time-to-event among groups were compared using log-rank test. The anti-tumor efficacy of LY5 was analyzed by using the statistical pipeline developed in PPTP [27].

A further data set relates to Rh10. The data set can be described thus: Subcutaneous xenograft study. It counts as in vivo, mice. Particulars: Rh10, 10 mg/kg daily for five days for four consecutive weeks. The method, then: as §2, §3
A further data set has as its system Rh36. The data set can be described thus: Subcutaneous xenograft study. It is filed as in vivo, mice. As to conditions: Rh36, 10 mg/kg daily for 28 days. The protocol:
as §2, §3

In a further data set the test system is OS-1. The data set can be described thus: Subcutaneous xenograft study. It is filed as in vivo, mice. Particulars: OS-1, 40 mg/kg twice per day for five days for four consecutive weeks. The protocol: as §2
The data were analyzed by using GraphPad Prism software (GraphPad Software, Inc., San Diego, CA). Data are presented as mean ± standard deviation. Data were analyzed by one-way analysis of variance (ANOVA), and Tukey’s post-test was used to assess differences between groups. Differences were considered statistically significant at p < 0.05. For in vivo xenograft models, an event was defined as four times the tumor volume at baseline similar to the PPTP criteria. […] The anti-tumor efficacy of LY5 was analyzed by using the statistical pipeline developed in PPTP [27].
Fig 6 Effects of LY5 are not mediated via STAT3 inhibition. […] After 72 hours of transfection, cells were harvested and analyzed for total (T) STAT3 and GAPDH protein expression by immunoblotting. […] Cell viability was then determined using Alamar Blue staining. […]

The test system of data set [4] is RH10, RH36, OS-17 and OS-1. The experiment in a line: Subcutaneous PDX models of RMS and OS, overall. It is filed as in vivo, mice. Particulars: subcutaneous PDX models RH10, RH36, OS-17, OS-1. The protocol: as §2
To further examine the efficacy of LY5, we administered LY5 using subcutaneous PDX models of RMS (RH10 and RH36) and OS (OS-17 and OS-1). RH10, RH36 and OS-1 were derived from tissue explants, therefore no corresponding cell lines exist. Tumors were harvested 2 hrs after final drug administration. […] In addition, STAT3 phosphorylation was not observed in control or treated tumor derived from OS-17, and inhibition of STAT3 phosphorylation was not observed in OS-1 PDX models treated with 40 mg/kg twice daily.

SMILES strings stand for the structures. Marks after values point to notes of the source that are not given here.

For `NS(=O)(=O)c1cccc2c1C(=O)C=C(Nc1cccnc1)C2=O` [LY5, 5,8-dioxo-6-(pyridin-3-ylamino)-5,8-dihydronaphthalene-1-sulfonamide], the IC50 with MG63.3 cells [1] stood at 3000 nM. The “percent tumor burden in PuMA” value in the data set on MG63.3 cells [2] is on record as “significantly decreased”. The same molecule displayed a tolerable dosing in data set [3] of 40 mg/kg BID. The toxicity entry in data set [3] (doses received via IV, oral, or IP routes) is listed as “No toxicity was noted”. Also, in the data set on OS-17, the “Event-free survival (Treatment/Control)” value came to 1.15; the “Group Response” value is “PD1 (Progressive disease 1, <50% tumor growth inhibition (TGI))”; the “Median day to event” value came out at 19.7 days; the “Survival (%)” value is 90%. In the data set on Rh10, the “Event-free survival (Treatment/Control)” value was 1.11; the “Group Response” value is listed as “PD1^e (Progressive disease 1, <50% tumor growth inhibition (TGI))”; the “Median day to event” value was 18.7 days; the “Survival (%)” value is on record as 100%. Besides, in the data set with Rh36, the “Event-free survival (Treatment/Control)” value is 0.94; the “Group Response” value was “PD1 (Progressive disease 1, <50% tumor growth inhibition (TGI))”; the “Median day to event” value was found to be 16.5 days; the “Survival (%)” value amounted to 100%. Besides, in the data set on OS-1, the “Group Response” value was “PD2^f (Progressive disease 2, >50% TGI, >25% tumor progression)” and the “Survival (%)” value stood at 90%. In addition, the “PDX growth compared to control” value in data set [4] was “did not decrease PDX growth”.

As usually defined, the IC50 is the midpoint of a concentration-inhibition curve. Read a low IC50 as greater potency in that assay.
